Measurements reported in patent US7439265B2, “Irciniastatins a and b” (Arizona Board of Regents, a body corporate of the State of …, priority 2003, dated 2008).
Values after ≈ are worked out from the molar mass of the structure shown.

Assays:
[1] = tested on: BXPC-3 pancreas cancer cell line; assay: Sulforhodamine B cancer cell growth inhibition, BXPC-3; assay type: cell-based, human; details: 48 hours
Protocol: (§1) Inhibition of human cancer cell growth was assessed using the National Cancer Institute's standard sulforhodamine B assay as previously described. Briefly, cells in a 5% fetal bovine serum/RPMI1640 medium solution were inoculated in 96-well plates and incubated for 24 hours Serial dilutions of the compounds were then added. After 48 hours, the plates were fixed with trichloroacetic acid, stained with sulforhodamine B and read with an automated microplate reader. A growth inhibition of 50% (GI50 of the drug concentration causing a 50% reduction in the net protein increase) was calculated from optical density data with Immunosoft software. Inhibition of the mouse leukemia P388 cells was assessed in a 10% horse serum/Fisher medium solution for 24 hours, followed by a 48 hour incubation with serial dilutions of the compounds. Cell growth inhibition (ED50) was then calculated using a Z1 Beckman/Coulter particle counter. (Monks, A., et al., Feasibility of high-flux anticancer screen using a diverse panel of cultured human tumor cell lines, J Natl. Cancer Inst. 1991, 83, 757-766.)

[2] = tested on: NCI-H460 lung cancer cell line; assay: Sulforhodamine B cancer cell growth inhibition, NCI-H460; assay type: cell-based, human; details: for GI50: NCI-H460 lung, 48 hours
Protocol: as §1

[3] = tested on: SF268 CNS cancer cell line; assay: Sulforhodamine B cancer cell growth inhibition, SF268; assay type: cell-based, human; details: 48 hours
Protocol: as §1

[4] = tested on: MCF-7 breast cancer cell line; assay: Sulforhodamine B cancer cell growth inhibition, MCF-7; assay type: cell-based, human; details: 48 hours
Protocol: as §1

[5] = tested on: murine P388 leukemia cell line and six human cancer cell lines; assay: Cancer cell growth inhibition, P388 plus minipanel of human cancer cell lines (summary); assay type: cell-based; details: against P388, BXPC-3, MCF-7 and SF268
Protocol: as §1

[6] = tested on: P388 lymphocytic leukemia cells; assay: Inhibition of mouse leukemia P388 cell growth; assay type: cell-based; details: P388 murine leukemia, in Table 2
Protocol: as §1

[7] = tested on: KM20L2 colon cancer cell line; assay: Sulforhodamine B cancer cell growth inhibition, KM20L2; assay type: cell-based, human; details: 48 hours
Protocol: as §1

[8] = tested on: DU-145 prostate cancer cell line; assay: Sulforhodamine B cancer cell growth inhibition, DU-145; assay type: cell-based, human; details: 48 hours
Protocol: as §1

[9] = tested on: Neisseria gonorrhoeae ATCC 49226; assay: Broth microdilution antibacterial susceptibility; assay type: cell-based
Protocol: (§2) Ircinastatin A (1) was evaluated against the bacteria Stenotrophomonas maltophilia ATCC 13637, Micrococcus luteus Presque Isle 456, Staphylococcus aureus ATCC 29213, Escherichia coli ATCC 25922, Enterobacter cloacae ATCC 13047, Enterococcus faecalis ATCC 29212, Streptococcus pneumoniae ATCC 6303 and Neisseria gonorrhoeae ATCC 49226, and the fungi Candida albicans ATCC 90028 and Cryptococcus neoformans ATCC 90112, following established broth microdilution susceptibility assays. The minimum inhibitory concentration was defined as the lowest concentration of irciniastatin A that inhibited all visible growth of the test organism (optically clear). Assays were repeated on separate days. (National Committee for Clinical Laboratory Standards. Methods for Dilution Antimicrobial Susceptibility Tests for Bacteria that Grow Aerobically. Approved Standard M7-A5. Wayne, Pa.: NCCLS, 2000; National Committee for Clinical Laboratory Standards. Reference Method for Broth Dilution Antifungal Susceptibility Testing of Yeasts. Approved Standard M27-A. Wayne, Pa.: NCCLS, 1997.)

[10] = tested on: HUVEC (human umbilical vascular endothelial cells); assay: Growth inhibition of normal endothelial cells (HUVEC); assay type: cell-based
[11] = tested on: Cryptococcus neoformans ATCC 90112; assay: Broth microdilution antifungal susceptibility; assay type: cell-based
Protocol: as §2

Structure (SMILES)	GI50 [1] [ng/mL]	GI50 [2] [ng/mL]	GI50 [3] [ng/mL]	GI50 [4] [ng/mL]	cell growth inhibition of irciniastatin B (2) relative to irciniastatin A (1) [5]	GI50 [6] [ng/mL]	GI50 [7] [ng/mL]	GI50 [8] [ng/mL]	activity of irciniastatin A relative to irciniastatin B ([2]; NCI-H460 lung cancer cells)	minimum inhibitory concentration [9] [ng/mL]	GI50 [10] [ng/mL]	minimum inhibitory concentration [11] [ng/mL]
C=C(C)C[C@H](OC)[C@H](O)C(=O)N[C@@H](OC)[C@@H]1CC(=O)C(C)(C)[C@@H](C[C@H](O)[C@@H](C)[C@H]2Cc3c(C)c(O)cc(O)c3C(=O)O2)O1 [Irciniastatin B, irciniastatin B]	0.73 (≈ 1.2 nM)	1.2 (≈ 1.97 nM)	0.66 (≈ 1.09 nM)	0.5 (≈ 0.823 nM)	ten times stronger	6 (≈ 9.87 nM)	2.1 (≈ 3.46 nM)	1.6 (≈ 2.63 nM)	–	–	–	–
C=C(C)CC(OC)[C@H](O)C(=O)N[C@@H](OC)[C@@H]1C[C@@H](O)C(C)(C)[C@@H](C[C@H](O)[C@@H](C)[C@H]2Cc3c(C)c(O)cc(O)c3C(=O)O2)O1 (stereo partly shown) [Irciniastatin A, irciniastatin A]	3.8 (≈ 6.23 nM)	<0.1	3.4 (≈ 5.58 nM)	3.2 (≈ 5.25 nM)	–	4.13 (≈ 6.77 nM)	2.7 (≈ 4.43 nM)	2.4 (≈ 3.94 nM)	at least 10 times	64000 (≈ 105000 nM)	<0.5	16000 (≈ 26200 nM)
